Measurements reported in patent publication US20260062443A1 (ALEXION PHARMACEUTICALS, INC., priority 2022, published 2026).

molecular target: T1, Human complement C1s enzyme (Homo sapiens, UniProt P09871); assay: Human C1s enzyme assay; assay type: biochemical; conditions: human complement C1s enzyme 1.16 nM, substrate Z-L-Lys-SBzl 100 μM, 5 min preincubation; read-out: IC50 (Stars), C1s Inhibiting Activity
T1 sequence (P09871 438-688 limits assumed): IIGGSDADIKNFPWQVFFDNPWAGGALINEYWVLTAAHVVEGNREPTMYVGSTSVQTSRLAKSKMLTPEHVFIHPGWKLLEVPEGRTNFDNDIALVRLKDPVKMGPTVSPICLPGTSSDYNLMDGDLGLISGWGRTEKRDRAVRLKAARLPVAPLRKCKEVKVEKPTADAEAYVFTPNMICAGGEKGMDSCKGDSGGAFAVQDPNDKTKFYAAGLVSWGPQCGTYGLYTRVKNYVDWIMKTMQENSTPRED
T1 sequence (P09871 16-437 partner limits assumed): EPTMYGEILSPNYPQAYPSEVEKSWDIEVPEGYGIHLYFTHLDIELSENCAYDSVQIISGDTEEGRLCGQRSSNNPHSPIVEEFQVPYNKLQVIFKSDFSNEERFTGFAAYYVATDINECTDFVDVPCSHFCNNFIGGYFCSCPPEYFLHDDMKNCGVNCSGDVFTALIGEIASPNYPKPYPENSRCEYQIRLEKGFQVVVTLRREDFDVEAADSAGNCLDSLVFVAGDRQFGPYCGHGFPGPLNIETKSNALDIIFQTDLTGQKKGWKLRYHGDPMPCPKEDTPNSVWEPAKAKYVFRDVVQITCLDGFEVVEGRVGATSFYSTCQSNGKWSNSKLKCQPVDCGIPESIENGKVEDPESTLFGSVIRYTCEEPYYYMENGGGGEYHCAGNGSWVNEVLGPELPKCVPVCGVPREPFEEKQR
Summary of the method: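 Serum-purified human C1s (1.16 nM final) preincubated 5 min at room temperature with compound in 50 mM Tris, 1 M NaCl, pH 7.5. Z-L-Lys-SBzl and DTNB added at 100 μM each; A405 followed every 30 s for 30 min, and IC50 obtained by nonlinear regression of reaction rates.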

| IC50 [nM] | SMILES |
| --- | --- |
| > 1000 | CS(=O)(=O)[C@@H]1C[C@@H](C(=O)N[C@H](CO)c2cc3cnccc3[nH]2)N(C(=O)CNC(=O)c2ccc(Oc3ccc(F)cc3)cc2)C1 [Compound 96, (2S,4R)-1-((4-(4-fluorophenoxy)benzoyl)glycyl)-N-((S)-2-hydroxy-1-(1H-pyrrolo[3,2-c]pyridin-2-yl)ethyl)-4-(methylsulfonyl) pyrrolidine-2-carboxamide] |
| > 1000 | COC[C@@]1(F)C[C@@H](C(=O)N[C@H](CO)c2cc3cnccc3[nH]2)N(C(=O)CNC(=O)c2ccc(Oc3ccc(F)cc3)cc2)C1 [Compound 97, (2S,4R)-4-fluoro-1-((4-(4-fluorophenoxy)benzoyl)glycyl)-N-((S)-2-hydroxy-1-(1H-pyrrolo[3,2-c]pyridin-2-yl)ethyl)-4-(methoxymethyl) pyrrolidine-2-carboxamide] |
| 100 to 1000 | O=C(NCC(=O)N1C[C@H](OC(F)F)C[C@H]1C(=O)N[C@H](CO)c1cc2cnccc2[nH]1)c1ccc(Oc2ccc(F)cc2)cc1 [Compound 98, (2S,4R)-4-(difluoromethoxy)-1-((4-(4-fluorophenoxy)benzoyl)glycyl)-N-((S)-2-hydroxy-1-(1H-pyrrolo[3,2-c]pyridin-2-yl)ethyl)pyrrolidine-2-carboxamide] |
| < 100 | CS(=O)(=O)[C@@H]1C[C@@H](C(=O)N[C@H](CO)c2cc3cnccc3[nH]2)N(C(=O)CNC(=O)c2ccc3c(c2)Oc2ccccc2S3)C1 [Compound 99, (2S,4R)-N-((S)-2-hydroxy-1-(1H-pyrrolo[3,2-c]pyridin-2-yl)ethyl)-4-(methylsulfonyl)-1-((phenoxathiine-3-carbonyl)glycyl) pyrrolidine-2-carboxamide] |
| 100 to 1000 | C[C@@H](NC(=O)[C@@H]1C[C@@H](OC(F)F)CN1C(=O)CN1Cc2cc(Br)ccc2C1=O)c1cc2cnccc2[nH]1 [Compound 100, (2S,4R)-N-((R)-1-(1H-pyrrolo[3,2-c]pyridin-2-yl)ethyl)-1-(2-(5-bromo-1-oxoisoindolin-2-yl)acetyl)-4-(difluoromethoxy)pyrrolidine-2-carboxamide] |
| < 100 | C[C@@H](NC(=O)[C@@H]1C[C@@H](OC(F)F)CN1C(=O)CN1Cc2cc(-c3ccc(F)cc3)ccc2C1=O)c1cc2cnccc2[nH]1 [Compound 101, (2S,4R)-N-((R)-1-(1H-pyrrolo[3,2-c]pyridin-2-yl)ethyl)-4-(difluoromethoxy)-1-(2-(5-(4-fluorophenyl)-1-oxoisoindolin-2-yl)acetyl)pyrrolidine-2-carboxamide] |
| 100 to 1000 | O=C(NCC(=O)N1C[C@H](OC(F)F)C[C@H]1C(=O)N[C@H](CO)c1cc2cnccc2[nH]1)c1ccc2c(c1)-c1ccccc1C2(F)F [Compound 103, (2S,4R)-1-((9,9-difluoro-9H-fluorene-3-carbonyl)glycyl)-4-(difluoromethoxy)-N-((S)-2-hydroxy-1-(1H-pyrrolo[3,2-c]pyridin-2-yl)ethyl) pyrrolidine-2-carboxamide] |
| 100 to 1000 | CS(=O)(=O)[C@@H]1C[C@@H](C(=O)N[C@H](CO)c2cc3cnccc3[nH]2)N(C(=O)CNC(=O)c2ccc3c(c2)-c2ccccc2C3(F)F)C1 [Compound 104, (2S,4R)-1-((9,9-difluoro-9H-fluorene-3-carbonyl)glycyl)-N-((S)-2-hydroxy-1-(1H-pyrrolo[3,2-c]pyridin-2-yl)ethyl)-4-(methylsulfonyl) pyrrolidine-2-carboxamide] |
| < 100 | Cc1ccc(-c2ccc3c(c2)CN(CC(=O)N2C[C@H](OC(F)F)C[C@H]2C(=O)N[C@H](C)c2cc4cnccc4[nH]2)C3=O)cc1 [Compound 105, (2S,4R)-N-((R)-1-(1H-pyrrolo[3,2-c]pyridin-2-yl)ethyl)-4-(difluoromethoxy)-1-(2-(1-oxo-5-(p-tolyl)isoindolin-2-yl)acetyl)pyrrolidine-2-carboxamide] |
| < 100 | Cc1ccc(-c2ccc3c(c2)CN(CC(=O)N2C[C@H](OC(F)F)C[C@H]2C(=O)N[C@H](C)c2cc4cnccc4[nH]2)C3=O)c(C)c1 [Compound 106, (2S,4R)-N-((R)-1-(1H-pyrrolo[3,2-c]pyridin-2-yl)ethyl)-4-(difluoromethoxy)-1-(2-(5-(2,4-dimethylphenyl)-1-oxoisoindolin-2-yl)acetyl)pyrrolidine-2-carboxamide] |
| < 100 | O=C(NCC(=O)N1CC2(C[C@H]1C(=O)NCc1cc3cnccc3[nH]1)OCCO2)c1ccc(-c2ccccc2)cn1 [Compound 107, (S)-N-((1H-pyrrolo[3,2-c]pyridin-2-yl)methyl)-7-((5-phenylpicolinoyl)glycyl)-1,4-dioxa-7-azaspiro[4.4]nonane-8-carboxamide] |
| 100 to 1000 | Cc1ccc(-c2cnc(C(=O)NCC(=O)N3CC4(C[C@H]3C(=O)NCc3cc5cnccc5[nH]3)OCCO4)c(F)c2)cc1 [Compound 108, (S)-N-((1H-pyrrolo[3,2-c]pyridin-2-yl)methyl)-7-((3-fluoro-5-(p-tolyl)picolinoyl)glycyl)-1,4-dioxa-7-azaspiro[4.4]nonane-8-carboxamide] |
| > 1000 | C[C@@]12C[C@@H]1N(C(=O)CNC(=O)CCCOc1ccccc1)[C@H](C(=O)NC1(c3nc4cnccc4[nH]3)CC1)C2 [Compound 109, (1S,3S,5S)-N-(1-(1H-imidazo[4,5-c]pyridin-2-yl)cyclopropyl)-5-methyl-2-((4-phenoxybutanoyl)glycyl)-2-azabicyclo[3.1.0]hexane-3-carboxamide] |
| > 1000 | Cc1nc(N)ccc1CNC(=O)[C@@H]1C[C@]2(C)C[C@@H]2N1C(=O)CNC(=O)c1ccc2c(c1)Oc1ccccc1S2 [Compound 110, (1S,3S,5S)-N-((6-amino-2-methylpyridin-3-yl)methyl)-5-methyl-2-((phenoxathiine-3-carbonyl)glycyl)-2-azabicyclo[3.1.0]hexane-3-carboxamide] |
| < 100 | O=C(NCC(=O)N1CC2(C[C@H]1C(=O)NCc1cc3cnccn3c1)OCCO2)c1ccc2c(c1)Oc1ccccc1S2 [Compound 111, 7-{2-[(Phenoxathiine-3-carbonyl)-amino]-acetyl}-1,4-dioxa-7-aza-spiro[4.4]nonane-8-carboxylic acid (pyrrolo[1,2-a]pyrazin-7-ylmethyl)-amide] |
| < 100 | C[C@@]12C[C@@H]1N(C(=O)CNC(=O)c1ccc3c(c1)Oc1ccccc1S3)[C@H](C(=O)NCc1cc3c(s1)CNCC3)C2 [Compound 112, (1S,3S,5S)-5-methyl-2-((phenoxathiine-3-carbonyl)glycyl)-N-((4,5,6,7-tetrahydrothieno[2,3-c]pyridin-2-yl)methyl)-2-azabicyclo[3.1.0]hexane-3-carboxamide] |
| < 100 | C[C@@H](NC(=O)[C@@H]1C[C@]2(C)C[C@@H]2N1C(=O)CN1Cc2cc(-c3ccc(F)cc3F)ccc2C1=O)c1cc2cnccc2[nH]1 [Compound 113, (1S,3S,5S)-N-((R)-1-(1H-pyrrolo[3,2-c]pyridin-2-yl)ethyl)-2-(2-(5-(2,4-difluorophenyl)-1-oxoisoindolin-2-yl)acetyl)-5-methyl-2-azabicyclo[3.1.0]hexane-3-carboxamide] |
| 100 to 1000 | C[C@@H](NC(=O)[C@@H]1CC2(CN1C(=O)CNC(=O)c1ccc(-c3ccccc3)cn1)OCCO2)c1cc2cnccc2[nH]1 [Compound 114, (S)-N-((R)-1-(1H-pyrrolo[3,2-c]pyridin-2-yl)ethyl)-7-((5-phenylpicolinoyl)glycyl)-1,4-dioxa-7-azaspiro[4.4]nonane-8-carboxamide] |
| > 1000 | Cc1ccc(-c2cnc(C(=O)NCC(=O)N3CC4(C[C@H]3C(=O)N[C@H](C)c3cc5cnccc5[nH]3)OCCO4)c(F)c2)cc1 [Compound 115, (S)-N-((R)-1-(1H-pyrrolo[3,2-c]pyridin-2-yl)ethyl)-7-((3-fluoro-5-(p-tolyl)picolinoyl)glycyl)-1,4-dioxa-7-azaspiro[4.4]nonane-8-carboxamide] |
| > 1000 | C[C@@H](NC(=O)[C@@H]1C[C@]2(C)C[C@@H]2N1C(=O)CN1Cc2cc(-c3ccc(F)cc3)ccc2C1=O)c1cc2cnccc2[nH]1 [Compound 116, (1S,3S,5S)-N-((R)-1-(1H-pyrrolo[3,2-c]pyridin-2-yl)ethyl)-2-(2-(5-(4-fluorophenyl)-1-oxoisoindolin-2-yl)acetyl)-5-methyl-2-azabicyclo[3.1.0]hexane-3-carboxamide] |
| 100 to 1000 | O=C(NCC(=O)N1CC2(C[C@H]1C(=O)NCc1cc3cnccc3[nH]1)OCCO2)c1ccc(-c2ccc(F)cc2F)cc1 [Compound 117, (S)-N-((1H-pyrrolo[3,2-c]pyridin-2-yl)methyl)-7-((2′,4′-difluoro-[1,1′-biphenyl]-4-carbonyl)glycyl)-1,4-dioxa-7-azaspiro[4.4]nonane-8-carboxamide] |
| > 1000 | O=C(NCC(=O)N1C[C@H](OC(F)F)C[C@H]1C(=O)O)c1ccc(Oc2ccccc2)cc1 [Compound 118, (2S,4R)-4-(difluoromethoxy)-1-((4-phenoxybenzoyl)glycyl) pyrrolidine-2-carboxylic acid] |
| > 1000 | O=C(NCC(=O)N1CC2(C[C@H]1C(=O)O)OCCO2)c1ccc(Oc2ccccc2)cc1 [Compound 119, (S)-7-((4-phenoxybenzoyl)glycyl)-1,4-dioxa-7-azaspiro[4.4]nonane-8-carboxylic acid] |
